Laboratory results as given in PubChem BioAssay AID588711 (The Scripps Research Institute Molecular Screening Center, 2011).
Several values for one entry are separate records, joined by “and”; a condition that tells them apart may be missing. Equal values may be shown once. Activity calls are given as the source filed them. How the calls were made is not given here.

The molecules below were run against Insulin-degrading enzyme (Homo sapiens) (UniProt P14735) (assay: inhibitors of recombinant IDE enzyme, late-stage follow-up, counter-screen for IDE inhibitor project, biochemical, fluorescence polarization (AID 588711)).
Insulin-degrading enzyme (Homo sapiens), sequence (P14735 whole entry, looked up): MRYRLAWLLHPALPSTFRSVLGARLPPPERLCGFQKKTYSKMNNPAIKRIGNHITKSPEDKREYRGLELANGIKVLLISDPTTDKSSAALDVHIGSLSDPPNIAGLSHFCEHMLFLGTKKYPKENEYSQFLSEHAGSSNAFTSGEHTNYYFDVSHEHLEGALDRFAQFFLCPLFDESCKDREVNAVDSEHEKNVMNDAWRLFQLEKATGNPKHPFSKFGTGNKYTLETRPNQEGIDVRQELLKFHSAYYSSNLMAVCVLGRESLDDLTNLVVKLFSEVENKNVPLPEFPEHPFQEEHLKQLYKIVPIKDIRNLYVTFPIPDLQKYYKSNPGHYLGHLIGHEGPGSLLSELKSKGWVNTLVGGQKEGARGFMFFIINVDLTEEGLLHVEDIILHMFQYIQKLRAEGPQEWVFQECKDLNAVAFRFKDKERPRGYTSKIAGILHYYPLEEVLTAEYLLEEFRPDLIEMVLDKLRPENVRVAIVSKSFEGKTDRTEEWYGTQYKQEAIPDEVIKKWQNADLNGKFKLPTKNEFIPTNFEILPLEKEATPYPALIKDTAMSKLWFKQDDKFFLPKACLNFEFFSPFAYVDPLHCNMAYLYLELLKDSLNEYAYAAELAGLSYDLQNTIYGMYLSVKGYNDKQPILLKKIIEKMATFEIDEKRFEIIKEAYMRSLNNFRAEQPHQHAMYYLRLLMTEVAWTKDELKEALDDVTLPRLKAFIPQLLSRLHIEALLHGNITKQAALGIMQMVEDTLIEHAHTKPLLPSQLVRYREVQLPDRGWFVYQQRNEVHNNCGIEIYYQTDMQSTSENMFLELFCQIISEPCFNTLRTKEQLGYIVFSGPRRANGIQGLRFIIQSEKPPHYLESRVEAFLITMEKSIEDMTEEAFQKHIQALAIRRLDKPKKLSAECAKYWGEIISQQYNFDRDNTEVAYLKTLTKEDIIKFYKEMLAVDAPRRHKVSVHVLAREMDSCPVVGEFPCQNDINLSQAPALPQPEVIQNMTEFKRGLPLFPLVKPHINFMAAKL
Molecule `CCOc1ccc2[nH]c3c(N4CCN(C(=O)c5ccco5)CC4)ncnc3c2c1` has an IC50 of 8.54 µM. In the case of `COc1ccc(-c2nc(C(=O)Nc3cccc(C(F)(F)F)c3)cs2)cc1`, the IC50 is reported as > 54.7 µM (inactive). For `O=C(Nc1cccc(C(F)(F)F)c1)c1csc(-c2cccc(C(F)(F)F)c2)n1`, the IC50 was > 54.7 µM (inactive). `Cc1ccc(C)c(N2C(=N)S/C(=C\c3ccc(-c4ccccc4C(=O)O)o3)C2=O)c1` was tested, and the IC50 was > 54.7 µM (inactive). In the case of `Cc1ccc(NC(=O)CSc2nnc(-c3cccc(Cl)c3)n2Cc2ccco2)c(C)c1`, the IC50 is reported as > 54.7 µM (inactive). Molecule `O=C(Nc1cccc(C(F)(F)F)c1)c1csc(-c2ccncc2)n1` has an IC50 of 2.8 µM. `O=C(Nc1cccc(C(F)(F)F)c1)c1csc(-c2ccccc2)n1` was tested, and the IC50 was > 54.7 µM (inactive). For `COc1ccc(NC(=O)CSc2nnc(CN3CCOCC3)n2C)cc1Cl`, the IC50 was > 54.7 µM (inactive). `Cc1c(CCC(=O)NCCCn2ccnc2)c(=O)oc2cc3oc4c(c3cc12)CCCC4` gave an IC50 of 6.14 µM. With `O=C(CSc1nnc(-c2cccc(Cl)c2)n1Cc1ccco1)Nc1ccccc1C(F)(F)F` the IC50 was > 54.7 µM (inactive). With `O=C(CSc1nnc(-c2cccc(Cl)c2)n1Cc1ccco1)c1ccc2ccccc2c1` the IC50 was > 54.7 µM (inactive). In the case of `O=c1c2ccccc2sn1-c1cc(S(=O)(=O)N2CCOCC2)ccc1N1CCOCC1`, the IC50 is reported as 1.71 µM. With `Cn1c(=O)c(C(=O)CN2CCCc3ccccc32)c(N)n(Cc2ccccc2)c1=O` the IC50 was > 54.7 µM (inactive). `Clc1cccc(-c2nnc(SCc3nc4ccccc4[nH]3)n2-c2ccccc2)c1` was tested, and the IC50 was > 54.7 µM (inactive). For `Cc1nc(-c2cccnc2)sc1C(=O)Nc1cccc(C(F)(F)F)c1`, the IC50 was > 54.7 µM (inactive). With `O=C(CSc1nnc(-c2cccc(Cl)c2)n1Cc1ccco1)Nc1ccc2c(c1)OCCO2` the IC50 was > 54.7 µM (inactive). For `O=C(Nc1cc(C(F)(F)F)cc(C(F)(F)F)c1)c1csc(-c2ccncc2)n1`, the IC50 was > 54.7 µM (inactive). For `Clc1cccc(-c2nnc(SCc3nc4ccccc4[nH]3)n2Cc2ccco2)c1`, the IC50 was 2.34 µM. For `Nc1c(C(=O)Nc2nccs2)sc2nc(-c3cccs3)cc(C(F)(F)F)c12`, the IC50 was > 18.2 µM (inactive). For `Cc1ccc(-c2nc(C(=O)Nc3cccc(C(F)(F)F)c3)cs2)cc1`, the IC50 was > 54.7 µM (inactive). For `O=C(C1CC1)N1CCN(c2ccnc3cc(Cl)ccc23)CC1`, the IC50 was “inactive”. With `O=C(CSc1nnc(-c2cccc(Cl)c2)n1Cc1ccco1)Nc1ccc2cn[nH]c2c1` the IC50 was > 54.7 µM (inactive). In the case of `CC(Sc1nnc(-c2cccnc2)n1-c1ccccc1F)C(=O)N1CCCc2ccccc21` (stereo not given), the IC50 is reported as > 54.7 µM (inactive). For `Cc1cccc(-c2nnc(SCc3nc4ccccc4[nH]3)n2Cc2ccco2)c1`, the IC50 was 7.21 µM and 6.15 µM. For `O=C(Nc1cccc(C(F)(F)F)c1)c1csc(Cc2cccc(C(F)(F)F)c2)n1`, the IC50 was > 54.7 µM (inactive). `Cn1c(SCc2nc3ccccc3[nH]2)nnc1-c1cccc(Cl)c1` was tested, and the IC50 was > 54.7 µM (inactive). With `COc1cc(/C=C2\SC(=S)N(NC(C)=O)C2=O)ccc1OC(=O)c1ccco1` the IC50 was “inactive”. With `O=C(Nc1ccc2oc(-c3cccnc3)nc2c1)c1ccc2c(c1)OCCO2` the IC50 was > 54.7 µM (inactive). With `COc1ccc(C(=O)N2CCN(C(=O)C3COc4ccccc4O3)CC2)cc1OC` (stereo not given) the IC50 was “inactive”. `COc1cccc(-c2nnc(SCc3nc4ccccc4[nH]3)n2Cc2ccco2)c1` showed an IC50 of 5.9 µM.
